Experimental data as given in US20230271933A1, “HETEROCYCLIC IMMUNOMODULATOR” (Beijing Innocare Pharma Tech Co., Ltd., priority 2020, published 2023).

Tests used:
[1] = system: NCI-H929 human myeloma cells; assay: Inhibition of the proliferation of NCI-H929 cells (luminescent cell viability, CTG); assay type: cell-based; settings: 6 days, CellTiter-Glo
Protocol: The effect of the compounds of the present invention on the proliferation of NCI-H929 human myeloma cells was evaluated by using a luminescent cell viability test experiment.
The compound was dissolved and diluted to 5 mM in DMSO, and then serially diluted 4-fold in DMSO to a minimum concentration of 0.31 μM. Each concentration was further diluted 50-fold with RPMI 1640 medium (Thermo Fisher, Cat. No. 72400-047). If the IC50 value of the compound was relatively low, the initial concentration of the compound could be lowered.
NCI-H929 cells (Nanjing Cobioer, Cat. No. CBP60243) were cultured in RPMI 1640 complete medium [containing 10% FBS (GIBCO, Cat. No. 10099-141) and 100 units/mL penicillin-streptomycin (Thermo Fisher, Cat. No. 15140122)]. Cells (15000 cells/mL) were plated in 90 μL of the complete medium in a 96-well plate and cultured overnight, and then 10 μL of the compound solution was added into each well. The cells were cultured in an incubator at 37° C. and 5% CO2 for 6 days. Then the cell culture plate was taken out and balanced to room temperature according to the instruction of the CellTilter-Glo (CTG) kit (Promega, Cat. No. G7572). 50 μL CTG reagent was added for complete lysis, the plate was placed at room temperature for 10 minutes, and the luminescence signal was read with a microplate reader (EnVision, Perkin Elmer). The group containing 0.2% DMSO medium was used as 0% inhibition. The XLfit software was used to plot the compound inhibition curve and calculate the inhibitory IC50 value.

[2] = system: TNFα; assay: Inhibition of TNFα secretion in LPS-stimulated hPBMC (ELISA); assay type: cell-based; settings: Homo sapiens, overnight, read-out: IC50 (nM) for the inhibition of the TNFa secretion
Protocol: (§1) The immunomodulatory function of the compound of the present invention was evaluated by detecting its effect on the secretion amount of TNFα and IL-2 in cells from the human peripheral blood mononuclear cells (hPBMC) by the enzyme linked immunosorbent assay (ELISA) method.
(§2) The peripheral blood of healthy volunteers was collected by using EDTA anticoagulant tubes, and diluted with phosphate buffered saline (PBS) containing 2% fetal bovine serum (Gibco, Cat. No. 10099-141) in an equal volume ratio. 30 mL of the resulting diluted sample was transferred into a Sepmate-50 centrifuge tube (Stemcell, Cat. No. 86450) to which 15 mL of a density-gradient centrifugation liquid (Sigma, Cat. No. 10771) had been added in advance, and centrifuged at room temperature at 1200×g for 10 minutes. The liquid containing PBMC in the upper layer was transferred to a new 50-mL centrifuge tube, and centrifuged at room temperature at 300×g for 8 minutes. The supernatant was discarded, and the resulting PBMC was resuspended to 5×10^6/mL by using RPMI 1640 medium (Gibco, Cat. No. 72400-047). 80 μL of the resulting suspension was added to each well in a 96-well plate.
(§3) Each concentration was further diluted 50-fold with RPMI 1640 medium. 10 μL of each compound solution was added into the cells in the above 96-well plate. The 96-well plate was placed in an incubator, and the cells were cultured at 37° C. and 5% CO2 for 1 hour. 10 μL of LPS (Sigma, Cat. No. L-2880) with a concentration of 100 ng/mL was added, and the cells were continuously cultured in the incubator at 37° C. and 5% CO2 overnight. Supernatants were collected for the detection of TNFα.
(§4) TNFα and IL-2 were detected respectively according to each instruction of the ELISA kits (R&D, Cat. No. DY210 and DY202, respectively) to obtain the OD450 values for each well. The group containing 0.2% DMSO medium was used as 0% inhibition or stimulation. The XLfit software was used to plot the compound inhibition or stimulation curve and calculate the corresponding IC50 or EC50.

[3] = system: IL-2; assay: Stimulation of IL-2 secretion in anti-CD3-stimulated hPBMC (ELISA); assay type: cell-based, human; settings: anti-CD3 antibody, 72 hours
Protocol: as §1, §2, §3
The above-mentioned 96-well plate can also be placed in an incubator, and the cells were cultured at 37° C. and 5% CO2 for 1 hour. 10 μL of anti-CD3 antibody (Thermo Fisher, Cat. No. 14-0037-82) with a concentration of 500 ng/mL was added, and the cells were continuously cultured in the incubator at 37° C. and 5% CO2 for 72 hours. Supernatants were collected for the detection of IL-2.
as §4

[4] = In vivo pharmacokinetic experiment in rats; settings: male Sprague-Dawley rats, n = 3; for F: PO 5 mpk vs IV 1 mpk; for clearance / Vd / AUC(0-t) / Cmax: rat, plasma; for clearance / Vd: 1 mg/kg, IV 1 mpk; for Vd: read-out: VSS; for AUC(0-t) / Cmax: 5 mg/kg, PO 5 mpk
Protocol: The compound to be tested was dissolved in 5% DMA+20% Solutol+75% Saline vehicle to prepare a 0.5 mg/mL administration solution.
2 mL/kg of the administration solution was administered through the intravenous injection (IV) at a dose of 1 mg/kg to three fed male Sprague-Dawley rats, respectively. Blood samples were collected at 0.083, 0.25, 0.5, 1, 2, 4, 8 and 24 hours after administration. 10 mL/kg of the administration solution was administered by gavage (PO) at a dose of 5 mg/kg to other three fed male Sprague-Dawley rats, respectively. Blood samples were collected at 0.25, 0.5, 1, 2, 4, 8 and 24 hours after administration.
The concentration of the compound to be tested in plasma was obtained with the LC-MS/MS quantitative analysis with an API-4500 mass spectrometer, and the limit of quantitation (LOQ) for the plasma was 1 ng/mL.

Row | Structure (SMILES) | IC50 ([1]; Homo sapiens, NCI-H929, 144 h) [nM] | IC50 [2] [nM] | EC50 ([3]; Homo sapiens) [nM] | further results
1 | N#CC(c1ccc(COc2cccc3c2CN([C@H]2CCC(=O)NC2=O)C3=O)cc1)N1CCOCC1 (stereo partly drawn) [Compound 10, 2-(4-(((2-((S)-2,6-dioxopiperidin-3-yl)-1-oxoisoindolin-4-yl)oxy)methyl)phenyl)-2-morpholinoacetonitrile] | 11 | 2.1 | 46 | –
2 | O=C1CCC(N2Cc3c(OCc4ccc(C5(N6CCOCC6)CC5)cc4)cccc3C2=O)C(=O)N1 (stereo not drawn) [Compound 2, 3-(4-((4-(1-morpholinocyclopropyl)benzyl)oxy)-1-oxoisoindolin-2-yl)piperidine-2,6-dione] | 35 | 7.8 | 10 | –
3 | C[C@H](c1ccc(COc2cccc3c2CN(C2CCC(=O)NC2=O)C3=O)cc1)N1CCOCC1 (stereo partly drawn) [Compound 3, 3-(4-((4-((R)-1-morpholinoethyl)benzyl)oxy)-1-oxoisoindolin-2-yl)piperidine-2,6-dione] | 7 | 1.1 | 8 | F [4]: 20%; clearance [4]: 61 mL/min/kg; Vd [4]: 4.2 L/kg; AUC(0-t) [4]: 270 ng·h/mL; Cmax [4]: 105 ng/mL
4 | N#Cc1ccc(N2CCN(C3(c4ccc(COc5cccc6c5CN([C@H]5CCC(=O)NC5=O)C6=O)cc4)CC3)CC2)c(F)c1 [Compound 9, (S)-4-(4-(1-(4-(((2-(2,6-dioxopiperidin-3-yl)-1-oxoisoindolin-4-yl)oxy)methyl)phenyl)-cyclopropyl)piperazin-1-yl)-3-fluorobenzonitrile] | 1.1 | – | – | –
5 | CC(C)(c1ccc(COc2cccc3c2CN([C@H]2CCC(=O)NC2=O)C3=O)cc1)N1CCOCC1 [Compound 5, (S)-3-(4-((4-(2-morpholinopropan-2-yl)benzyl)oxy)-1-oxoisoindolin-2-yl)piperidine-2,6-dione] | 7.8 | – | – | F [4]: 4%; clearance [4]: 110 mL/min/kg; Vd [4]: 3.3 L/kg; AUC(0-t) [4]: 8.8 ng·h/mL; Cmax [4]: 1.6 ng/mL
6 | CC(c1ccc(COc2cccc3c2CN(C2CCC(=O)NC2=O)C3=O)cc1)N1CCOCC1 (stereo not drawn) [Compound 1, 3-(4-((4-(1-morpholinoethyl)benzyl)oxy)-1-oxoisoindolin-2-yl)piperidine-2,6-dione] | 7.7 | – | – | –
7 | C[C@H](c1ccc(COc2cccc3c2CN([C@H]2CCC(=O)NC2=O)C3=O)cc1)N1CCN(C2CC2)CC1 [Compound 12, (S)-3-(4-((4-((R)-1-(4-cyclopropylpiperazin-1-yl)ethyl)benzyl)oxy)-1-oxoisoindolin-2-yl)piperidine-2,6-dione] | 0.3 | – | – | –
8 | C[C@H](c1ccc(COc2cccc3c2CN([C@H]2CCC(=O)NC2=O)C3=O)cc1)N1CCN(C(=O)C2CC2)CC1 [Compound 11, (S)-3-(4-((4-((R)-1-(4-(cyclopropanecarbonyl)piperazin-1-yl)ethyl)benzyl)oxy)-1-oxoisoindolin-2-yl)piperidine-2,6-dione] | 2.2 | – | – | –
9 | C[C@@H](c1ccc(COc2cccc3c2CN(C2CCC(=O)NC2=O)C3=O)cc1)N1CCOCC1 (stereo partly drawn) [Compound 4, 3-(4-((4-((S)-1-morpholinoethyl)-benzyl)oxy)-1-oxoisoindolin-2-yl)piperidine-2,6-dione] | 5 | 0.9 | 4.1 | –
10 | CC(C)(c1ccc(COc2cccc3c2CN([C@H]2CCC(=O)NC2=O)C3=O)cc1)N1CCN(c2ccc(C#N)cc2F)CC1 [Compound 8, (S)-4-(4-(2-(4-(((2-(2,6-dioxopiperidin-3-yl)-1-oxoisoindolin-4-yl)oxy)methyl)phenyl)-prop-2-yl)piperazin-1-yl)-3-fluorobenzonitrile] | 0.5 | – | 4 | –
11 | C[C@H](c1ccc(COc2cccc3c2CN([C@H]2CCC(=O)NC2=O)C3=O)cc1)N1CCN(S(C)(=O)=O)CC1 [Compound 13, (S)-3-(4-((4-((R)-1-(4-(methylsulfonyl)piperazin-1-yl)ethyl)benzyl)oxy)-1-oxoisoindolin-2-yl)piperidine-2,6-dione] | 1.2 | – | – | –
12 | C[C@@H](c1ccc(COc2cccc3c2CN([C@H]2CCC(=O)NC2=O)C3=O)cc1)N1CCN(c2ccc(C#N)cc2F)CC1 [Compound 7, 4-(4-((S)-1-(4-(((2-((S)-2,6-dioxopiperidin-3-yl)-1-oxoisoindolin-4-yl)oxy)methyl)phenyl)-ethyl)piperazin-1-yl)-3-fluorobenzonitrile] | 0.2 | 2.8 | 3.2 | F [4]: 19%; clearance [4]: 13 mL/min/kg; Vd [4]: 2.4 L/kg; AUC(0-t) [4]: 1200 ng·h/mL; Cmax [4]: 121 ng/mL

The next lines start with results.

Row | IC50 ([1]; Homo sapiens, NCI-H929, 144 h) [nM] | IC50 [2] [nM] | EC50 ([3]; Homo sapiens) [nM] | Structure (SMILES) | further results
13 | 0.1 | – | 1.9 | C[C@H](c1ccc(COc2cccc3c2CN([C@H]2CCC(=O)NC2=O)C3=O)cc1)N1CCN(c2ccncc2F)CC1 [Compound 20, (S)-3-(4-((4-((R)-1-(4-(3-fluoropyridin-4-yl)piperazin-1-yl)ethyl)benzyl)oxy)-1-oxoisoindolin-2-yl)piperidine-2,6-dione] | –
14 | 0.3 | 3.7 | – | C[C@H](c1ccc(COc2cccc3c2CN([C@H]2CCC(=O)NC2=O)C3=O)cc1)N1CCN(c2ccc(F)cc2F)CC1 [Compound 17, (S)-3-(4-((4-((R)-1-(4-(2,4-difluorophenyl)piperazin-1-yl)ethyl)benzyl)oxy)-1-oxoisoindolin-2-yl)piperidine-2,6-dione] | –
15 | – | 0.8 | – | CC(c1ccc(COc2cccc3c2CN([C@H]2CCC(=O)NC2=O)C3=O)cc1)N1CC2CC1CO2 (single isomer, unassigned) [Compound 19] | IC50 [1]: 3.8 nM; EC50 [3]: 11 nM
16 | 0.4 | 1.7 | 19 | C[C@H](c1ccc(COc2cccc3c2CN([C@H]2CCC(=O)NC2=O)C3=O)cc1)N1CCN(c2ccncn2)CC1 [Compound 15, (S)-3-(1-oxo-4-((4-((R)-1-(4-(pyrimidin-4-yl)piperazin-1-yl)ethyl)benzyl)oxy)isoindolin-2-yl)piperidine-2,6-dione] | –
17 | 3.1 | – | 11 | CC(c1ccc(COc2cccc3c2CN([C@H]2CCC(=O)NC2=O)C3=O)cc1)N1CC2CC1CO2 (single isomer, unassigned) [Compound 18] | –
18 | 1.4 | – | – | C[C@H](c1ccc(COc2cccc3c2CN([C@H]2CCC(=O)NC2=O)C3=O)cc1)N1CCN(C)CC1 [Compound 14, (S)-3-(4-((4-((R)-1-(4-methylpiperazin-1-yl)ethyl)benzyl)oxy)-1-oxoisoindolin-2-yl)piperidine-2,6-dione] | –
